This passage reports GI50 and TGI results from PubChem BioAssay (NCI).

Test systems include A549 NSCLC; SF-539 CNS; SW-620 colon; K-562 leukemia; MDA-MB-231 breast; 786-0 renal; CCRF-CEM leukemia; MDA-MB-435; NCI-H460 lung; ACHN renal.
Assay in all cases: NCI-60 cell line screen, 48 h

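Values below derive from 48-hour exposures of cells grown in 96-well plates, with endpoints linearly interpolated between the two concentrations bracketing the appropriate inhibition level. GI50 is the concentration that inhibits growth by half. TGI: concentration producing complete growth inhibition.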

Regarding `FC(F)(F)c1ccc2c(c1)N(CCCN1CCN(C3CC3)CC1)c1ccccc1S2`, the GI50 with A549 NSCLC was 10.9 µM; in the test on SF-539 CNS, 14 µM; in the test with SW-620 colon it was 4.42 µM; in the test with K-562 leukemia, 3.98 µM; in the test with MDA-MB-231 breast, 10.9 µM; in the test with 786-0 renal, 15.4 µM. The GI50 was 9.11 µM in the test with CCRF-CEM leukemia, 12.2 µM with MDA-MB-435, 5.99 µM in the test with NCI-H460 lung and 10.6 µM in the test on ACHN renal. Further, the TGI in the test on A549 NSCLC was found to be 23.5 µM; in the test on SF-539 CNS it was 29.5 µM; in the test with SW-620 colon, 18.1 µM; in the test with K-562 leukemia, 20.5 µM; in the test on MDA-MB-231 breast, 26.1 µM; in the test with 786-0 renal it was 30.3 µM. The TGI is 29.3 µM with CCRF-CEM leukemia, 27.6 µM with MDA-MB-435, 19.8 µM in the test with NCI-H460 lung and 24.6 µM with ACHN renal.
With `COc1nccc(-c2c(-c3ccc(F)cc3)ncn2C2CCC(O)CC2)n1` (centres undefined), the GI50 is 32.4 µM with A549 NSCLC; above 100 µM with SF-539 CNS; above 70.8 µM in the test on SW-620 colon; 44.1 µM in the test with K-562 leukemia; above 100 µM with MDA-MB-231 breast; above 100 µM with 786-0 renal. The GI50 in the test with CCRF-CEM leukemia was above 84.5 µM; in the test with MDA-MB-435, 54.3 µM; with NCI-H460 lung, 29.9 µM; with ACHN renal, 14.8 µM. Further, the TGI in the test with A549 NSCLC, in the test with SF-539 CNS, with SW-620 colon, in the test with K-562 leukemia, with MDA-MB-231 breast and in the test with 786-0 renal was above 100 µM throughout. Also, the TGI in the test on CCRF-CEM leukemia, in the test with MDA-MB-435, in the test with NCI-H460 lung and in the test on ACHN renal was above 100 µM throughout.
With `Cc1sc2ncnc(Sc3nc4ccccc4[nH]3)c2c1C`, the GI50 with A549 NSCLC is 21.5 µM; with SF-539 CNS, 38.4 µM; in the test on SW-620 colon, 42.3 µM; in the test on K-562 leukemia, 23.4 µM; in the test with MDA-MB-231 breast it was 17.4 µM; with 786-0 renal, 37.3 µM. For the same molecule, the GI50 in the test on CCRF-CEM leukemia is 21.1 µM; in the test with MDA-MB-435, 26.3 µM; in the test with NCI-H460 lung it was 27.6 µM; with ACHN renal, 24.4 µM. In addition, the TGI was 73 µM with A549 NSCLC; above 100 µM with SF-539 CNS; above 100 µM in the test on SW-620 colon; 97.3 µM with K-562 leukemia; 94.3 µM in the test with MDA-MB-231 breast; above 100 µM with 786-0 renal. Also, the TGI in the test on CCRF-CEM leukemia, in the test on MDA-MB-435, with NCI-H460 lung and in the test on ACHN renal was above 100 µM each time.
Consider `CC(=O)OCC(=O)[C@@]1(O)[C@H](C)C[C@H]2[C@@H]3C=C(C)C4=Cc5c(cnn5-c5ccc(F)cc5)C[C@]4(C)[C@H]3[C@@H](O)C[C@@]21C`, for which the GI50 in the test on A549 NSCLC is 1.45 µM; in the test with SF-539 CNS, 0.473 µM; with SW-620 colon, 1.8 µM; in the test with K-562 leukemia, 1.15 µM; with MDA-MB-231 breast it was 2.56 µM; in the test on 786-0 renal it was 1.06 µM. The GI50 in the test on CCRF-CEM leukemia was below 0.0158 µM; with MDA-MB-435, 2.35 µM; with NCI-H460 lung, 1.47 µM; with ACHN renal, 2.5 µM. Moreover, the TGI was 9.96 µM in the test with A549 NSCLC; 2.35 µM in the test on SF-539 CNS; 3.41 µM with SW-620 colon; above 23.2 µM in the test on K-562 leukemia; 6.43 µM with MDA-MB-231 breast; 2.55 µM in the test on 786-0 renal. For the same molecule, the results for the TGI in the test on MDA-MB-435, with NCI-H460 lung and in the test on ACHN renal were 7.02 µM, 3.16 µM and 9.97 µM, respectively.
With `CC(C)(C)Cn1c(N)nc2ccc(-c3[nH]c(C(C)(C)C)nc3-c3ccc(F)cc3)nc21`, the GI50 with A549 NSCLC is 8.38 µM; in the test on SF-539 CNS, 13.3 µM; with SW-620 colon, 13.6 µM; in the test on K-562 leukemia, 3.73 µM; in the test with MDA-MB-231 breast, 12.3 µM; in the test with 786-0 renal, 9.75 µM. Further, the GI50 in the test on CCRF-CEM leukemia is 12.6 µM; in the test on MDA-MB-435, 11.2 µM; in the test with NCI-H460 lung, 7.46 µM; with ACHN renal, 1.04 µM. The TGI was 28.7 µM with A549 NSCLC; 28.5 µM in the test on SF-539 CNS; 30.1 µM with SW-620 colon; above 72.8 µM in the test with K-562 leukemia; 29.5 µM in the test on MDA-MB-231 breast; 25.9 µM in the test on 786-0 renal. Moreover, the TGI in the test on CCRF-CEM leukemia is above 63 µM; in the test with MDA-MB-435 it was 24.1 µM; in the test with NCI-H460 lung it was 26.5 µM; in the test on ACHN renal, 16.7 µM.
For the molecule `OCCNc1nc(NCCO)nc(Nc2ccc(C3=NN(c4cc(Cl)cc(Cl)c4)C(c4ccc(Cl)cc4)C3)cc2)n1` (centres undefined), the GI50 is 1.96 µM in the test with A549 NSCLC; 1.35 µM in the test with SF-539 CNS; 2.03 µM with SW-620 colon; 1.73 µM in the test with K-562 leukemia; 1.71 µM in the test on MDA-MB-231 breast; 1.64 µM with 786-0 renal. Moreover, the GI50 was 2.11 µM with CCRF-CEM leukemia, 1.65 µM in the test with MDA-MB-435, 1.89 µM in the test on NCI-H460 lung and 1.55 µM with ACHN renal. For the same molecule, the TGI with A549 NSCLC is 4.45 µM; in the test on SF-539 CNS, 2.63 µM; with SW-620 colon, 4.52 µM; in the test with K-562 leukemia, 3.74 µM; in the test with MDA-MB-231 breast, 3.42 µM; with 786-0 renal, 3.28 µM. Moreover, the TGI in the test with CCRF-CEM leukemia worked out at 5.46 µM; in the test with MDA-MB-435 it was 3.11 µM; in the test on NCI-H460 lung it was 3.66 µM; in the test with ACHN renal it was 3.17 µM.
Consider `CCOC(=O)c1sc(=S)c2c(C(=O)c3ccccc3)c(C(=O)c3ccccc3)sc2c1C(=O)OCC`, for which the GI50 was 5.17 µM in the test on A549 NSCLC; 3.82 µM in the test on SF-539 CNS; 4.25 µM in the test on SW-620 colon; 3.21 µM with K-562 leukemia; 3.61 µM in the test with MDA-MB-231 breast; 6.8 µM in the test with 786-0 renal. Further, the GI50 with CCRF-CEM leukemia was 2.1 µM; in the test on MDA-MB-435 it was 3.34 µM; in the test with NCI-H460 lung, 21 µM; with ACHN renal, 3 µM. Further, the TGI in the test with A549 NSCLC was above 100 µM; with SF-539 CNS, 17.8 µM; in the test on SW-620 colon, above 100 µM; in the test on K-562 leukemia, above 100 µM; in the test on MDA-MB-231 breast, 34.5 µM; in the test with 786-0 renal, above 100 µM. Further, the TGI in the test with CCRF-CEM leukemia is 5.99 µM; in the test on MDA-MB-435 it was 9.66 µM; in the test with NCI-H460 lung, above 100 µM; in the test on ACHN renal, 9.32 µM.
Take `O=C(O)C(/C=C/c1ccco1)=N\Nc1nc(-c2ccc(Cl)cc2)cs1`: the GI50 is 16 µM with A549 NSCLC; 14.6 µM in the test on SF-539 CNS; 22.5 µM in the test with SW-620 colon; 13.5 µM in the test with K-562 leukemia; 14.7 µM with MDA-MB-231 breast; 14.3 µM in the test on 786-0 renal. Besides, the GI50 in the test with CCRF-CEM leukemia was 3.26 µM; in the test on MDA-MB-435, 11.3 µM; in the test with NCI-H460 lung it was 8.36 µM; in the test on ACHN renal, 14.6 µM. For the same molecule, the TGI in the test on A549 NSCLC, with SF-539 CNS, with SW-620 colon, with K-562 leukemia, in the test with MDA-MB-231 breast and in the test with 786-0 renal was above 50 µM throughout. Also, the TGI with CCRF-CEM leukemia, with MDA-MB-435, in the test on NCI-H460 lung and in the test on ACHN renal was above 50 µM each time.
Regarding `CC[C@@]1(O)C(=O)NCc2c1cc1n(c2=O)Cc2cc3cc4c(cc3nc2-1)OCO4`, the GI50 in the test on A549 NSCLC is 0.618 µM; in the test with SF-539 CNS, 0.374 µM; in the test on SW-620 colon it was 0.352 µM; with K-562 leukemia, 0.164 µM; with MDA-MB-231 breast, above 48.2 µM; in the test on 786-0 renal it was 0.672 µM. The GI50 in the test on CCRF-CEM leukemia is below 0.0128 µM; with MDA-MB-435 it was 2.11 µM; with NCI-H460 lung, 0.219 µM; with ACHN renal, 0.398 µM. The TGI was above 73.4 µM in the test with A549 NSCLC; 4.57 µM in the test on SF-539 CNS; above 26.3 µM with SW-620 colon; above 100 µM in the test on K-562 leukemia; above 100 µM in the test with MDA-MB-231 breast; 14.4 µM in the test with 786-0 renal. The TGI with CCRF-CEM leukemia was 0.148 µM; with MDA-MB-435, above 100 µM; in the test on NCI-H460 lung, 16.9 µM; with ACHN renal, above 13.2 µM.
